The supplement of paper PMC13207355

What was measured:
Settings in all cases: exposure time: 72 h
E34 [1] = patient-derived glioblastoma stem cells of proneural subtype; assay: phenotypic distance (Euclidean, principal components) from DMSO controls (arbitrary units); higher = stronger morphological change
E31 [2] = patient-derived glioblastoma stem cells of proneural subtype; assay: as above
E28 [3] = patient-derived glioblastoma stem cells of classical subtype; assay: as above
E21 [4] = patient-derived glioblastoma stem cells of mesenchymal subtype; assay: as above
E57 [5] = patient-derived glioblastoma stem cells of mesenchymal subtype; assay: as above
E13 [6] = patient-derived glioblastoma stem cells of classical subtype; assay: as above
FT3469 [7] = normal neural stem cell line; assay: as above
E34 [8] = assay: surviving fraction (nuclei count normalised to DMSO); higher = more cells surviving (less toxic)
E31 [9] = assay: as above
E28 [10] = assay: as above
E21 [11] = assay: as above
E57 [12] = assay: as above
E13 [13] = assay: as above
FT3469 [14] = assay: as above
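Throughout, for phenotypic distance (Euclidean, principal components) from DMSO controls: cell Painting imaging in 384-well plates, CellProfiler features reduced to at least 20 principal components, Euclidean distance versus same-plate DMSO vehicle wells (0.1% v/v), median over six images per well.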
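Throughout, for surviving fraction (nuclei count normalised to DMSO): nuclei counted by high-content imaging of Hoechst-stained cells in laminin-coated 384-well plates, relative to 0.1% DMSO vehicle wells, with staurosporine as cell-death control.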

CC[C@@H]1C(=O)N(C)c2cnc(Nc3ccc(C(=O)N[C@H]4CC[C@H](N5CCN(CC6CC6)CC5)CC4)cc3OC)nc2N1C(C)C [Volasertib]
phenotypic distance (E34 [1]; 4.1 nM): 1.64
phenotypic distance (E34 [1]; 12.3 nM): 1.44
phenotypic distance (E34 [1]; 37 nM): 2.23
phenotypic distance (E34 [1]; 111.1 nM): 2.45
phenotypic distance (E34 [1]; 333.3 nM): 3.05
phenotypic distance (E34 [1]; 1000 nM): 4.15
phenotypic distance (E34 [1]; 3000 nM): 3.53
phenotypic distance (E31 [2]; 4.1 nM): 2.88
phenotypic distance (E31 [2]; 12.3 nM): 2.73
phenotypic distance (E31 [2]; 37 nM): 2.37
phenotypic distance (E31 [2]; 111.1 nM): 3.54
phenotypic distance (E31 [2]; 333.3 nM): 3.91
phenotypic distance (E31 [2]; 1000 nM): 4.92
phenotypic distance (E31 [2]; 3000 nM): 3.6
phenotypic distance (E28 [3]; 4.1 nM): 1.97
phenotypic distance (E28 [3]; 12.3 nM): 1.64
phenotypic distance (E28 [3]; 37 nM): 1.4
phenotypic distance (E28 [3]; 111.1 nM): 2.98
phenotypic distance (E28 [3]; 333.3 nM): 2.89
phenotypic distance (E28 [3]; 1000 nM): 3.11
phenotypic distance (E28 [3]; 3000 nM): 4.22
phenotypic distance (E21 [4]; 4.1 nM): 2.95
phenotypic distance (E21 [4]; 12.3 nM): 3.49
phenotypic distance (E21 [4]; 37 nM): 3.86
phenotypic distance (E21 [4]; 111.1 nM): 6.48
phenotypic distance (E21 [4]; 333.3 nM): 5.25
phenotypic distance (E21 [4]; 1000 nM): 6.04
phenotypic distance (E21 [4]; 3000 nM): 7.2
phenotypic distance (E57 [5]; 4.1 nM): 2.53
phenotypic distance (E57 [5]; 12.3 nM): 2.05
phenotypic distance (E57 [5]; 37 nM): 3.22
phenotypic distance (E57 [5]; 111.1 nM): 7.13
phenotypic distance (E57 [5]; 333.3 nM): 6.28
phenotypic distance (E57 [5]; 1000 nM): 6.68
phenotypic distance (E57 [5]; 3000 nM): 8.42
phenotypic distance (E13 [6]; 4.1 nM): 4.53
phenotypic distance (E13 [6]; 12.3 nM): 4.86
phenotypic distance (E13 [6]; 37 nM): 5.16
phenotypic distance (E13 [6]; 111.1 nM): 4.97
phenotypic distance (E13 [6]; 333.3 nM): 4.79
phenotypic distance (E13 [6]; 1000 nM): 5.82
phenotypic distance (E13 [6]; 3000 nM): 5.69
phenotypic distance (FT3469 [7]; 4.1 nM): 2.22
phenotypic distance (FT3469 [7]; 12.3 nM): 1.25
phenotypic distance (FT3469 [7]; 37 nM): 1.74
phenotypic distance (FT3469 [7]; 111.1 nM): 2.57
phenotypic distance (FT3469 [7]; 333.3 nM): 2.83
phenotypic distance (FT3469 [7]; 1000 nM): 3.25
phenotypic distance (FT3469 [7]; 3000 nM): 2.99
surviving fraction (E34 [8]; 4.1 nM): 0.769
surviving fraction (E34 [8]; 12.3 nM): 0.695
surviving fraction (E34 [8]; 37 nM): 0.644
surviving fraction (E34 [8]; 111.1 nM): 0.624
surviving fraction (E34 [8]; 333.3 nM): 0.503
surviving fraction (E34 [8]; 1000 nM): 0.414
surviving fraction (E34 [8]; 3000 nM): 0.501
surviving fraction (E31 [9]; 4.1 nM): 0.275
surviving fraction (E31 [9]; 12.3 nM): 0.237
surviving fraction (E31 [9]; 37 nM): 0.251
surviving fraction (E31 [9]; 111.1 nM): 0.163
surviving fraction (E31 [9]; 333.3 nM): 0.161
surviving fraction (E31 [9]; 1000 nM): 0.148
surviving fraction (E31 [9]; 3000 nM): 0.178
surviving fraction (E28 [10]; 4.1 nM): 0.613
surviving fraction (E28 [10]; 12.3 nM): 0.688
surviving fraction (E28 [10]; 37 nM): 0.648
surviving fraction (E28 [10]; 111.1 nM): 0.439
surviving fraction (E28 [10]; 333.3 nM): 0.459
surviving fraction (E28 [10]; 1000 nM): 0.386
surviving fraction (E28 [10]; 3000 nM): 0.39
surviving fraction (E21 [11]; 4.1 nM): 0.459
surviving fraction (E21 [11]; 12.3 nM): 0.447
surviving fraction (E21 [11]; 37 nM): 0.372
surviving fraction (E21 [11]; 111.1 nM): 0.289
surviving fraction (E21 [11]; 333.3 nM): 0.207
surviving fraction (E21 [11]; 1000 nM): 0.205
surviving fraction (E21 [11]; 3000 nM): 0.274
surviving fraction (E57 [12]; 4.1 nM): 0.623
surviving fraction (E57 [12]; 12.3 nM): 0.679
surviving fraction (E57 [12]; 37 nM): 0.463
surviving fraction (E57 [12]; 111.1 nM): 0.205
surviving fraction (E57 [12]; 333.3 nM): 0.123
surviving fraction (E57 [12]; 1000 nM): 0.12
surviving fraction (E57 [12]; 3000 nM): 0.141
surviving fraction (E13 [13]; 4.1 nM): 0.449
surviving fraction (E13 [13]; 12.3 nM): 0.418
surviving fraction (E13 [13]; 37 nM): 0.387
surviving fraction (E13 [13]; 111.1 nM): 0.387
surviving fraction (E13 [13]; 333.3 nM): 0.348
surviving fraction (E13 [13]; 1000 nM): 0.301
surviving fraction (E13 [13]; 3000 nM): 0.322
surviving fraction (FT3469 [14]; 4.1 nM): 0.874
surviving fraction (FT3469 [14]; 12.3 nM): 0.885
surviving fraction (FT3469 [14]; 37 nM): 0.808
surviving fraction (FT3469 [14]; 111.1 nM): 0.646
surviving fraction (FT3469 [14]; 333.3 nM): 0.588
surviving fraction (FT3469 [14]; 1000 nM): 0.506
surviving fraction (FT3469 [14]; 3000 nM): 0.544

NCCNc1ccc(NCCN)c2c1C(=O)c1ccncc1C2=O [Pixantrone dimaleate]
phenotypic distance (E34 [1]; 4.1 nM): 0.885
phenotypic distance (E34 [1]; 12.3 nM): 0.947
phenotypic distance (E34 [1]; 37 nM): 1.52
phenotypic distance (E34 [1]; 111.1 nM): 3.49
phenotypic distance (E34 [1]; 333.3 nM): 3.78
phenotypic distance (E34 [1]; 1000 nM): 3.22
phenotypic distance (E34 [1]; 3000 nM): 1.77
phenotypic distance (E31 [2]; 4.1 nM): 2.15
phenotypic distance (E31 [2]; 12.3 nM): 1.85
phenotypic distance (E31 [2]; 37 nM): 2.43
phenotypic distance (E31 [2]; 111.1 nM): 3.58
phenotypic distance (E31 [2]; 333.3 nM): 2.86
phenotypic distance (E31 [2]; 1000 nM): 3.07
phenotypic distance (E31 [2]; 3000 nM): 4.34
phenotypic distance (E28 [3]; 4.1 nM): 2.06
phenotypic distance (E28 [3]; 12.3 nM): 2.09
phenotypic distance (E28 [3]; 37 nM): 2.43
phenotypic distance (E28 [3]; 111.1 nM): 3.32
phenotypic distance (E28 [3]; 333.3 nM): 3.6
phenotypic distance (E28 [3]; 1000 nM): 3.19
phenotypic distance (E28 [3]; 3000 nM): 4.63
phenotypic distance (E21 [4]; 4.1 nM): 0.691
phenotypic distance (E21 [4]; 12.3 nM): 0.873
phenotypic distance (E21 [4]; 37 nM): 0.996
phenotypic distance (E21 [4]; 111.1 nM): 2.7
phenotypic distance (E21 [4]; 333.3 nM): 4.95
phenotypic distance (E21 [4]; 1000 nM): 6
phenotypic distance (E21 [4]; 3000 nM): 5.53
phenotypic distance (E57 [5]; 4.1 nM): 0.987
phenotypic distance (E57 [5]; 12.3 nM): 0.95
phenotypic distance (E57 [5]; 37 nM): 1.45
phenotypic distance (E57 [5]; 111.1 nM): 3.37
phenotypic distance (E57 [5]; 333.3 nM): 6.17
phenotypic distance (E57 [5]; 1000 nM): 7.83
phenotypic distance (E57 [5]; 3000 nM): 8.45
phenotypic distance (E13 [6]; 4.1 nM): 2.19
phenotypic distance (E13 [6]; 12.3 nM): 0.616
phenotypic distance (E13 [6]; 37 nM): 0.772
phenotypic distance (E13 [6]; 111.1 nM): 1.76
phenotypic distance (E13 [6]; 333.3 nM): 4.4
phenotypic distance (E13 [6]; 1000 nM): 5.24
phenotypic distance (E13 [6]; 3000 nM): 4.99
phenotypic distance (FT3469 [7]; 4.1 nM): 1.02
phenotypic distance (FT3469 [7]; 12.3 nM): 1.28
phenotypic distance (FT3469 [7]; 37 nM): 1.5
phenotypic distance (FT3469 [7]; 111.1 nM): 2.03
phenotypic distance (FT3469 [7]; 333.3 nM): 1.76
phenotypic distance (FT3469 [7]; 1000 nM): 1.86
phenotypic distance (FT3469 [7]; 3000 nM): 2.37
surviving fraction (E34 [8]; 4.1 nM): 0.839
surviving fraction (E34 [8]; 12.3 nM): 0.771
surviving fraction (E34 [8]; 37 nM): 0.637
surviving fraction (E34 [8]; 111.1 nM): 0.702
surviving fraction (E34 [8]; 333.3 nM): 0.686
surviving fraction (E34 [8]; 1000 nM): 0.588
surviving fraction (E34 [8]; 3000 nM): 0.492
surviving fraction (E31 [9]; 4.1 nM): 0.539
surviving fraction (E31 [9]; 12.3 nM): 0.566
surviving fraction (E31 [9]; 37 nM): 0.397
surviving fraction (E31 [9]; 111.1 nM): 0.327
surviving fraction (E31 [9]; 333.3 nM): 0.312
surviving fraction (E31 [9]; 1000 nM): 0.275
surviving fraction (E31 [9]; 3000 nM): 0.142
surviving fraction (E28 [10]; 4.1 nM): 0.677
surviving fraction (E28 [10]; 12.3 nM): 0.604
surviving fraction (E28 [10]; 37 nM): 0.524
surviving fraction (E28 [10]; 111.1 nM): 0.418
surviving fraction (E28 [10]; 333.3 nM): 0.349
surviving fraction (E28 [10]; 1000 nM): 0.333
surviving fraction (E28 [10]; 3000 nM): 0.216
surviving fraction (E21 [11]; 4.1 nM): 0.991
surviving fraction (E21 [11]; 12.3 nM): 0.812
surviving fraction (E21 [11]; 37 nM): 0.904
surviving fraction (E21 [11]; 111.1 nM): 0.733
surviving fraction (E21 [11]; 333.3 nM): 0.619
surviving fraction (E21 [11]; 1000 nM): 0.509
surviving fraction (E21 [11]; 3000 nM): 0.364
surviving fraction (E57 [12]; 4.1 nM): 0.955
surviving fraction (E57 [12]; 12.3 nM): 0.897
surviving fraction (E57 [12]; 37 nM): 0.79
surviving fraction (E57 [12]; 111.1 nM): 0.555
surviving fraction (E57 [12]; 333.3 nM): 0.346
surviving fraction (E57 [12]; 1000 nM): 0.288
surviving fraction (E57 [12]; 3000 nM): 0.24
surviving fraction (E13 [13]; 4.1 nM): 0.883
surviving fraction (E13 [13]; 12.3 nM): 0.94
surviving fraction (E13 [13]; 37 nM): 0.916
surviving fraction (E13 [13]; 111.1 nM): 0.798
surviving fraction (E13 [13]; 333.3 nM): 0.48
surviving fraction (E13 [13]; 1000 nM): 0.399
surviving fraction (E13 [13]; 3000 nM): 0.383
surviving fraction (FT3469 [14]; 4.1 nM): 0.869
surviving fraction (FT3469 [14]; 12.3 nM): 0.795
surviving fraction (FT3469 [14]; 37 nM): 0.763
surviving fraction (FT3469 [14]; 111.1 nM): 0.623
surviving fraction (FT3469 [14]; 333.3 nM): 0.666
surviving fraction (FT3469 [14]; 1000 nM): 0.631
surviving fraction (FT3469 [14]; 3000 nM): 0.565
